Reference: patent publication US20170088520A1, “DEUBIQUITINASE INHIBITORS” (PharmAkea, Inc., priority 2014, published 2017)

Key:
Assay type in all cases: cell-based
[1] = molecular target: T1, DUB activity in cells (NCI-H929, Z138, MM.1S, A375) (Homo sapiens, UniProt Q93008); test: HA-Ubiquitin-Vinylsulfone (HA-Ub-VS) cell labeling assay; conditions: compound tested at 5 μM; HA-Ub-VS labeling of USP9x in cells
T1 construct: endogenous in cells; host or cells: NCI-H929, Z138, MM.1S, A375
In short: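 NCI-H929, Z138, MM.1S or A375 cells (1–2×10^6) treated 2–6 h at 37 °C with compound in 0.5% DMSO, here 5 μM. Lysates labeled with HA-Ub-VS for 15–60 min at 37 °C. Labeled DUBs resolved by SDS-PAGE and quantified by anti-HA and anti-β-actin immunoblot with infrared detection.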

[2] = test system: Mcl-1 expression in cells (NCI-H929, Z138, MM.1S, A-375); test: Analysis of Mcl-1 expression by Western blotting; conditions: compound tested at 5 μM; Western blot
In short: (§1)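 NCI-H929, Z138, MM.1S and A-375 cells were treated with compounds at 5 μM, and lysates were Western blotted with anti-Mcl-1 and anti-PARP antibodies, quantified by infrared fluorescence. Activity is a significant drop in Mcl-1 and the appearance of cleaved PARP, each relative to vehicle-treated cells.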

[3] = test system: PARP cleavage in cells (NCI-H929, Z138, MM.1S, A-375); test: Analysis of PARP cleavage by Western blotting; conditions: compound tested at 5 μM; Western blot
In short: as §1

T1 sequence (Q93008 whole entry): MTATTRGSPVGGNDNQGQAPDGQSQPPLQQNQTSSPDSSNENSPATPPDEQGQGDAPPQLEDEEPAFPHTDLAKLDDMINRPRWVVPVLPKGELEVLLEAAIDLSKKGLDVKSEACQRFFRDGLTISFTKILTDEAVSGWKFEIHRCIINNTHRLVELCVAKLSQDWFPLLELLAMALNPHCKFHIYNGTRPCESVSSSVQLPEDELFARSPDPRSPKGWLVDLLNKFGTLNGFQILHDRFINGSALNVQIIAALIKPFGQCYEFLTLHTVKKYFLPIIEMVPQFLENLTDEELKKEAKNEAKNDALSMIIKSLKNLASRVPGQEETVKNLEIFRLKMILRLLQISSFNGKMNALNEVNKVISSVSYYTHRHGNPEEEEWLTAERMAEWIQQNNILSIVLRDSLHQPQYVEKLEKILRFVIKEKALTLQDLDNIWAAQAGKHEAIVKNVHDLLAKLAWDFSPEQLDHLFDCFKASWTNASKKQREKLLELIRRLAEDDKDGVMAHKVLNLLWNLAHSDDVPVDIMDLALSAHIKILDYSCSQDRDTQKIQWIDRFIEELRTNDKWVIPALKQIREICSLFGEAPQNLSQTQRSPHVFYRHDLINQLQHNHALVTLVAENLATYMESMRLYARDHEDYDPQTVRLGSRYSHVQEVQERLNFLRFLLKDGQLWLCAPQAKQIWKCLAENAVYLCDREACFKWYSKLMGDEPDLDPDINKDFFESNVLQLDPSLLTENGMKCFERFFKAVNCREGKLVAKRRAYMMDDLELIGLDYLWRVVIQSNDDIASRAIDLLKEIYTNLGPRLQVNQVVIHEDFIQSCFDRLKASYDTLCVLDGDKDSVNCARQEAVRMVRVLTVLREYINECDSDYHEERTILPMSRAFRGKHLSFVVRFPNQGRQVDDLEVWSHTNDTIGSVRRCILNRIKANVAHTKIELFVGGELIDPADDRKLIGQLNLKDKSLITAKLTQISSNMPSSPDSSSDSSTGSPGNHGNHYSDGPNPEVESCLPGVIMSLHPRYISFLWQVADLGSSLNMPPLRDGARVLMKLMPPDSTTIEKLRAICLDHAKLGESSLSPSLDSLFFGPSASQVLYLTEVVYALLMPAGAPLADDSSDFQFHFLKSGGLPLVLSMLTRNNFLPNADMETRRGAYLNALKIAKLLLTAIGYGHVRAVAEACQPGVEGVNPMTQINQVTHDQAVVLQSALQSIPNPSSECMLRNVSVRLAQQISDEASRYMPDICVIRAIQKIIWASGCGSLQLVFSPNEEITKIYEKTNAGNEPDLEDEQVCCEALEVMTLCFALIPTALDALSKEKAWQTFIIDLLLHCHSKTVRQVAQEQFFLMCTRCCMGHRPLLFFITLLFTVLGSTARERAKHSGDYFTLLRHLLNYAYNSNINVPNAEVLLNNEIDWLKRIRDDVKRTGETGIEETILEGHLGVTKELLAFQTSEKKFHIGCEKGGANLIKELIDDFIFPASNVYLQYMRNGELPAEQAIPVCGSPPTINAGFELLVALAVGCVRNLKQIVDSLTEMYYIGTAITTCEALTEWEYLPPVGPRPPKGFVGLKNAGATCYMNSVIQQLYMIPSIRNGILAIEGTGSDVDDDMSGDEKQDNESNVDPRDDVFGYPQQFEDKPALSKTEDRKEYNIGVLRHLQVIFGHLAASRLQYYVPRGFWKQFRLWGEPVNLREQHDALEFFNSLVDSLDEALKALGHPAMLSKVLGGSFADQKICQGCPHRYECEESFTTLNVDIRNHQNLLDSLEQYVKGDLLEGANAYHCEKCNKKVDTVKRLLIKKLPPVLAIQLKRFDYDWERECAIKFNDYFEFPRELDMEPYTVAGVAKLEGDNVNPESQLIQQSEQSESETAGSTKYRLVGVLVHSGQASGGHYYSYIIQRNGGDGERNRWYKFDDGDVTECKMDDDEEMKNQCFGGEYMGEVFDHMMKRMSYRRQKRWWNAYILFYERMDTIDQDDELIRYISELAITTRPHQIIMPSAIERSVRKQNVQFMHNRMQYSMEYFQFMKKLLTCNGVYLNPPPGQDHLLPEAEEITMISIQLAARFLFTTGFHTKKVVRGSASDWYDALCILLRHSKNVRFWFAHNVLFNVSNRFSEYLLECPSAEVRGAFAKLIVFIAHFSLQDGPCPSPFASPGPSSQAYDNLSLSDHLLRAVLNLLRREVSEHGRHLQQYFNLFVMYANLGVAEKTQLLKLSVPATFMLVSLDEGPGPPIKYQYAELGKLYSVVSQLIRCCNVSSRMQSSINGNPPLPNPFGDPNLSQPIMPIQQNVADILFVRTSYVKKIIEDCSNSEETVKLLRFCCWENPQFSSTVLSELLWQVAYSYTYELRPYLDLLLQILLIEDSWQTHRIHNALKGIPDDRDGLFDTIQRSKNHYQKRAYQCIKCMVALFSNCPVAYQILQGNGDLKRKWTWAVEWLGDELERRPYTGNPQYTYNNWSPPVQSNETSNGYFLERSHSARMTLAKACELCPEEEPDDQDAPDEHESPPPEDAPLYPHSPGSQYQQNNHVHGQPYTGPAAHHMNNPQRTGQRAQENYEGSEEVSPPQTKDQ

Row | Compound | inhibition at 5 µM [1] [%] | inhibition at 5 µM [2] [%] | PARP cleavage % Inhibition [3]
1 | N#C/C(=C\c1cccc(-c2ccc(C(F)(F)F)nc2)n1)C(=O)NC1(c2ccccc2)CCCC1 [Compound 64, (E)-2-cyano-N-(1-phenylcyclopentyl)-3-(6′-(trifluoromethyl)-[2,3′-bipyridin]-6-yl)acrylamide] | 50 to 75 | ≥ 75 | A (A is ≧75% inhibition)
2 | N#C/C(=C\c1cccc(-c2ccc(N3CCCCC3)nc2)n1)C(=O)NC1(c2ccccc2)CCCC1 [Compound 65, (E)-2-cyano-N-(1-phenylcyclopentyl)-3-(6′-(piperidin-1-yl)-[2,3′-bipyridin]-6-yl)acrylamide] | 25 to 50 | < 25 | B (B is 50% to 75% inhibition)
3 | CN(C)C(=O)c1ccc(C2(NC(=O)/C(C#N)=C/c3ncc(Br)cc3Br)CCCC2)cc1 [Compound 66, (E)-4-(1-(2-cyano-3-(3,5-dibromopyridin-2-yl)acrylamido)cyclopentyl)-N,N-dimethylbenzamide] | 50 to 75 | ≥ 75 | A (A is ≧75% inhibition)
4 | N#C/C(=C\c1cccc(C2CC2)n1)C(=O)NC1(c2ccc(-c3cccnc3)cc2)CCCC1 [Compound 67, (E)-2-cyano-3-(6-cyclopropylpyridin-2-yl)-N-(1-(4-(pyridin-3-yl)phenyl)cyclopentyl)acrylamide] | 50 to 75 | ≥ 75 | A (A is ≧75% inhibition)
5 | N#C/C(=C\c1ncc(Br)cc1Br)C(=O)NC1(c2ccc(-c3ccc(C(F)(F)F)nc3)cc2)CCCC1 [Compound 68, (E)-2-cyano-3-(3,5-dibromopyridin-2-yl)-N-(1-(4-(6-(trifluoromethyl)pyridin-3-yl)phenyl)cyclopentyl)acrylamide] | ≥ 75 | ≥ 75 | A (A is ≧75% inhibition)
6 | N#C/C(=C\c1ncc(Br)cc1Br)C(=O)NC1(c2ccc(-c3ccc(N4CCCCC4)nc3)cc2)CCCC1 [Compound 69, (E)-2-cyano-3-(3,5-dibromopyridin-2-yl)-N-(1-(4-(6-(piperidin-1-yl)pyridin-3-yl)phenyl)cyclopentyl)acrylamide] | < 25 | < 25 | D (D is <25% inhibition)
7 | N#C/C(=C\c1cccc(-c2ccc3[nH]ncc3c2)n1)C(=O)NC1(c2ccccc2)CCCC1 [Compound 70, (E)-3-(6-(1H-indazol-5-yl)pyridin-2-yl)-2-cyano-N-(1-phenylcyclopentyl) acrylamide] | 50 to 75 | ≥ 75 | A (A is ≧75% inhibition)
8 | N#C/C(=C\c1cccc(-c2cccc(C(=O)O)c2)n1)C(=O)NC1(c2ccccc2)CCCC1 [Compound 71, (E)-3-(6-(2-cyano-3-oxo-3-((1-phenylcyclopentyl)amino)prop-1-en-1-yl)pyridin-2-yl)benzoic acid] | < 25 | < 25 | D (D is <25% inhibition)
9 | COc1ccc(COc2ccc(C3(NC(=O)/C(C#N)=C/c4cccc(Br)n4)CCCC3)cc2)cc1 [Compound 72, (E)-3-(6-bromopyridin-2-yl)-2-cyano-N-(1-(4-((4-methoxybenzyl)oxy)phenyl)cyclopentyl)acrylamide] | 50 to 75 | ≥ 75 | A (A is ≧75% inhibition)
10 | N#C/C(=C\c1cccc(Br)n1)C(=O)NC1(c2ccc(-c3cccnc3)cc2)CCCC1 [Compound 73, (E)-3-(6-bromopyridin-2-yl)-2-cyano-N-(1-(4-(pyridin-3-yl)phenyl)cyclopentyl)acrylamide] | ≥ 75 | ≥ 75 | A (A is ≧75% inhibition)
11 | N#C/C(=C\c1cccc(Br)n1)C(=O)NC1(c2ccc(C#CC3(O)COC3)cc2)CCCC1 [Compound 75, (E)-3-(6-bromopyridin-2-yl)-2-cyano-N-(1-(4-((3-hydroxyoxetan-3-yl)ethynyl)phenyl)cyclopentyl)acrylamide] | 50 to 75 | ≥ 75 | A (A is ≧75% inhibition)
12 | N#C/C(=C\c1cccc(Br)n1)C(=O)NC1(c2ccc(C#CC3(O)CCCC3)cc2)CCCC1 [Compound 76, (E)-3-(6-bromopyridin-2-yl)-2-cyano-N-(1-(4-((1-hydroxycyclopentyl)ethynyl)phenyl)cyclopentyl)acrylamide] | ≥ 75 | ≥ 75 | A (A is ≧75% inhibition)
13 | Cn1cc(-c2ccc(C3(NC(=O)/C(C#N)=C/c4ncc(Br)cc4Br)CCCC3)cc2)cn1 [Compound 77, (E)-2-cyano-3-(3,5-dibromopyridin-2-yl)-N-(1-(4-(1-methyl-1H-pyrazol-4-yl)phenyl)cyclopentyl)acrylamide] | 50 to 75 | 50 to 75 | B (B is 50% to 75% inhibition)
14 | N#C/C(=C\c1cccc(Br)n1)C(=O)NC1(c2ccc(C#CCNCCO)cc2)CCCC1 [Compound 78, (E)-3-(6-bromopyridin-2-yl)-2-cyano-N-(1-(4-(3-((2-hydroxyethyl)amino)prop-1-yn-1-yl)phenyl)cyclopentyl)acrylamide] | 50 to 75 | < 25 | B (B is 50% to 75% inhibition)
15 | N#C/C(=C\c1cccc(Br)n1)C(=O)NC1(c2ccc(O)cc2)CCCC1 [Compound 79, (E)-3-(6-bromopyridin-2-yl)-2-cyano-N-(1-(4-hydroxyphenyl)cyclopentyl)acrylamide] | ≥ 75 | ≥ 75 | A (A is ≧75% inhibition)
16 | N#C/C(=C\c1cccc(Br)n1)C(=O)NC1(c2ccccc2)CCOC1 (stereo not drawn) [Compound 80, (E)-3-(6-bromopyridin-2-yl)-2-cyano-N-(3-phenyltetrahydrofuran-3-yl)acrylamide] | < 25 | < 25 | D (D is <25% inhibition)
17 | N#C/C(=C\c1cccc(Br)n1)C(=O)NC1(c2cccc(CO)c2)CCCC1 [Compound 81, (E)-3-(6-bromopyridin-2-yl)-2-cyano-N-(1-(3-(hydroxymethyl)phenyl)cyclopentyl)acrylamide] | 50 to 75 | 25 to 50 | A (A is ≧75% inhibition)
18 | N#C/C(=C\c1cccc(C2CC2)n1)C(=O)NC1(c2ccc(-c3cccc(C(=O)O)c3)cc2)CCCC1 [Compound 82, (E)-4′-(1-(2-cyano-3-(6-cyclopropylpyridin-2-yl)acrylamido)cyclopentyl)-[1,1′-biphenyl]-3-carboxylic acid] | < 25 | 50 to 75 | A (A is ≧75% inhibition)
19 | N#C/C(=C\c1cccc(N2CCCC2)n1)C(=O)NC1(c2ccccc2)CCCC1 [Compound 83, (E)-2-cyano-N-(1-phenylcyclopentyl)-3-(6-(pyrrolidin-1-yl)pyridin-2-yl) acrylamide] | < 25 | < 25 | D (D is <25% inhibition)
20 | CCCCCCCCCCCCCC(=O)OCc1ccc(C2(NC(=O)/C(C#N)=C/c3cccc(Br)n3)CCCC2)cc1 [Compound 84, (E)-4-(1-(3-(6-bromopyridin-2-yl)-2-cyanoacrylamido)cyclopentyl)benzyl tetradecanoate] | < 25 | < 25 | D (D is <25% inhibition)
21 | N#C/C(=C\c1cccc(Br)n1)C(=O)NC1(c2ccc(COC(=O)CCCCCN3C(=O)C=CC3=O)cc2)CCCC1 [Compound 85, (E)-4-(1-(3-(6-bromopyridin-2-yl)-2-cyanoacrylamido)cyclopentyl)benzyl 6-(2,5-dioxo-2,5-dihydro-1H-pyrrol-1-yl)hexanoate] | 25 to 50 | < 25 | C (C is 25% to 50% inhibition)
22 | N#C/C(=C\c1cccc(Br)n1)C(=O)NC1(c2ccc(CO)cc2)CCCC1 [Compound 86, (E)-3-(6-bromopyridin-2-yl)-2-cyano-N-(1-(4-(hydroxymethyl)phenyl)cyclopentyl)acrylamide] | 25 to 50 | < 25 | B (B is 50% to 75% inhibition)
23 | CC(=O)OCc1ccc(C2(NC(=O)/C(C#N)=C/c3cccc(Br)n3)CCCC2)cc1 [Compound 87, (E)-4-(1-(3-(6-bromopyridin-2-yl)-2-cyanoacrylamido)cyclopentyl)benzyl acetate] | 25 to 50 | 50 to 75 | A (A is ≧75% inhibition)
24 | CC(C)(C)OC(=O)COc1ccc(C2(NC(=O)/C(C#N)=C/c3cccc(Br)n3)CCCC2)cc1 [Compound 88, (E)-tert-butyl 2-(4-(1-(3-(6-bromopyridin-2-yl)-2-cyanoacrylamido)cyclopentyl)phenoxy)acetate] | ≥ 75 | ≥ 75 | A (A is ≧75% inhibition)
25 | N#C/C(=C\c1cccc(-c2cccc(C(=O)O)c2F)n1)C(=O)NC1(c2ccccc2)CCCC1 [Compound 89, (E)-3-(6-(2-cyano-3-oxo-3-((1-phenylcyclopentyl)amino)prop-1-en-1-yl)pyridin-2-yl)-2-fluorobenzoic acid] | < 25 | < 25 | C (C is 25% to 50% inhibition)
